How the values were obtained:
[1] = Plasma concentration after a single oral dose of the anxiolytic fraction (HPLC); type: in vivo, ICR mice; conditions: oral 200 mg/kg anxiolytic fraction, immediately after administration and over 24 h
Procedure: Eleven groups of ten animals each were randomly formed. All animals were orally administered with 200 mg/kg of the active fraction. Animals were anaesthetized with ether, and blood samples were obtained from the retroorbital sinus with a heparinized capillary, each group was examined at different times (0, 5, 10, 15, 30, 60, 120, 240, 480, 720, and 1440 min) after the active fraction was administered. […] Then the plasma samples were frozen and lyophilized. The dry plasma was subsequently used to extract and measure the concentration of the flavonoids and biotransformation products.
(§1) Plasma dried pulverized samples were extracted with methanol (HPLC grade, Merck). The extracts were filtered with Teflon membrane dimensions 0.45 μm by 13 mm (Millex®-LCR); 20 μL of each filtered sample was injected into the HPLC equipment. The measurements were performed in a (Waters corporation, Milford, CT, USA) 2695 HPLC with a diode array detector (Waters 2996) and processed with the Empower Pro 1.0 software. A Chromolith Performance® RP-18e 100 × 4.6 mm (Merck KGaA, Darmstadt, Germany) was used. The mobile phase consisted of a mixture of acetonitrile and water with the proportion 55:45 and a flow rate of 1 mL/min. The concentrations of the flavonoids and the biotransformation products were obtained by comparison with a pre-built calibration curve at λ = 220 nm.
To evaluate the suitability of the assay for the pharmacokinetic studies, 200 mg/kg of the active fraction was orally administered to the animals. Ten animals were used in each group at different times (0, 5, 10, 15, 30, 60, 120, 240, 480, 720, and 1440 min). Pharmacokinetic calculations were performed using the observed data. All data was subsequently processed using the PKSolver add-in program for Microsoft Excel written in Visual Basic for Applications. All values obtained were expressed in mean ± standard deviation.

[2] = Stability of flavonoids and biotransformation products in mouse plasma under different handling conditions; type: in vitro ADME, mice; conditions: for Accuracy Bias 0 h / Observed Conc. 0 h / Accuracy Bias 8 h / Observed Conc. 8 h / Accuracy Bias 24 h / Observed Conc. 24 h: room temperature (25 °C); for Observed Conc. 0 h / Observed Conc. 8 h / Observed Conc. 24 h / Observed Conc. Autosampler (4 °C; 8 h) / Observed Conc. Long-term (−70 °C; 1 month): n = 6; for Accuracy Bias Autosampler (4 °C; 8 h) / Accuracy Bias Long-term (−70°C; 1 month) / Observed Conc. Autosampler (4 °C; 8 h) / Observed Conc. Long-term (−70 °C; 1 month): storage stability
Procedure: as §1
[…] The investigation enclosed here expected manipulation conditions during all the sample storage and process periods, which included the stability data from the freeze/thaw, bench-top, autosampler, and long–term stability tests.
For all stability studies, fresh QC samples were evaluated by using a freshly prepared standard curve for the measurements. The concentrations obtained from all the stability studies were compared with the fresh QC samples, and the percentage concentration deviation was calculated. The analytes were considered stable in the mouse plasma when the concentration difference between the freshly prepared samples and the stability samples was less than 15%.

[3] = test system: intestinal epithelial cells; set-up: method as in PMID 25761590; conditions: compared with the aglycone kaempherol; cited from earlier work
[4] = high nominal conc. (rutin 7.00; quercetin glucoside, quercitrin, tiliroside 44.37; kaempferol 4.50; m-HPAA, p-HPAA, DOPAC 31.25 µg/mL)
[5] = low nominal conc. (rutin 1.75; quercetin glucoside, quercitrin, tiliroside 11.02; kaempferol 1.12; m-HPAA, p-HPAA, DOPAC 1.95 µg/mL)
[6] = medium nominal conc. (rutin 3.50; quercetin glucoside, quercitrin, tiliroside 22.18; kaempferol 2.24; m-HPAA, p-HPAA, DOPAC 7.81 µg/mL)
[7] = high nominal conc. (7.00; 44.37; 4.50; 31.25 µg/mL)
[8] = low nominal conc. (1.75; 11.02; 1.12; 1.95 µg/mL)
[9] = medium nominal conc. (3.50; 22.18; 2.24; 7.81 µg/mL)

flavonoids found in the plasma after oral administration [1]	Accuracy Bias 0 h ([2]; high nominal conc.) [%]	Observed Conc. 0 h [2, 4] [µg/mL]	Accuracy Bias 0 h ([2]; low nominal conc.) [%]	Observed Conc. 0 h [2, 5] [µg/mL]	Accuracy Bias 0 h ([2]; medium nominal conc.) [%]	Observed Conc. 0 h [2, 6] [µg/mL]	Accuracy Bias 8 h ([2]; high nominal conc.) [%]	Observed Conc. 8 h [2, 7] [µg/mL]	Accuracy Bias 8 h ([2]; low nominal conc.) [%]	Observed Conc. 8 h [2, 8] [µg/mL]	Accuracy Bias 8 h ([2]; medium nominal conc.) [%]	Observed Conc. 8 h [2, 9] [µg/mL]	Accuracy Bias 24 h ([2]; high nominal conc.) [%]	Accuracy Bias 24 h ([2]; low nominal conc.) [%]	Observed Conc. 24 h [2, 8] [µg/mL]	Accuracy Bias 24 h ([2]; medium nominal conc.) [%]	Observed Conc. 24 h [2, 9] [µg/mL]	Accuracy Bias Autosampler (4 °C; 8 h) ([2]; high nominal conc.) [%]	Observed Conc. Autosampler (4 °C; 8 h) [2, 7] [µg/mL]	Structure (SMILES)	also measured
not found	2.86	43.10 ± 2.20	−1.24	11.16 ± 0.27	5.94	20.86 ± 1.35	4.28	42.48 ± 1.06	1.62	10.84 ± 0.67	6.02	20.84 ± 1.24	6.76	−2.98	11.35 ± 0.61	7.83	20.44 ± 1.65	−1.82	43.30 ± 2.02	O=c1c(O[C@@H]2O[C@H](CO)[C@@H](O)[C@H](O)[C@H]2O)c(-c2ccc(O)c(O)c2)oc2cc(O)cc(O)c12 [Quercetin glucoside, quercetin glucoside]	Observed Conc. 24 h [2, 7]: 41.37 ± 1.17 µg/mL; Accuracy Bias Long-term (−70°C; 1 month) ([2]; high nominal conc.): −3.52%; Observed Conc. Long-term (−70 °C; 1 month) [2, 7]: 41.60 ± 2.26 µg/mL; Accuracy Bias Autosampler (4 °C; 8 h) ([2]; low nominal conc.): 2.40%; Accuracy Bias Long-term (−70°C; 1 month) ([2]; low nominal conc.): 6.22%; Observed Conc. Autosampler (4 °C; 8 h) [2, 8]: 11.22 ± 0.59 µg/mL; Observed Conc. Long-term (−70 °C; 1 month) [2, 8]: 11.41 ± 0.71 µg/mL; Accuracy Bias Autosampler (4 °C; 8 h) ([2]; medium nominal conc.): 5.48%; Accuracy Bias Long-term (−70°C; 1 month) ([2]; medium nominal conc.): 7.26%; Observed Conc. Autosampler (4 °C; 8 h) [2, 9]: 20.96 ± 1.31 µg/mL; Observed Conc. Long-term (−70 °C; 1 month) [2, 9]: 20.57 ± 2.06 µg/mL
not found	−4.64	4.45 ± 0.41	−3.29	1.16 ± 0.099	0.53	2.24 ± 0.20	−1.74	4.32 ± 0.21	−7.28	1.21 ± 0.83	4.60	2.15 ± 0.19	1.77	−2.28	1.15 ± 0.098	−8.12	2.42 ± 0.22	1.24	4.19 ± 0.37	O=c1c(O)c(-c2ccc(O)cc2)oc2cc(O)cc(O)c12 [Kaempferol, kaempferol]	Accuracy Bias Long-term (−70°C; 1 month) ([2]; high nominal conc.): −2.47%; Observed Conc. Long-term (−70 °C; 1 month) [2, 7]: 4.35 ± 0.39 µg/mL; Accuracy Bias Autosampler (4 °C; 8 h) ([2]; low nominal conc.): −7.77%; Accuracy Bias Long-term (−70°C; 1 month) ([2]; low nominal conc.): −2.77%; Observed Conc. Autosampler (4 °C; 8 h) [2, 8]: 1.21 ± 0.07 µg/mL; Observed Conc. Long-term (−70 °C; 1 month) [2, 8]: 1.15 ± 0.10 µg/mL; Accuracy Bias Autosampler (4 °C; 8 h) ([2]; medium nominal conc.): 0.50%; Accuracy Bias Long-term (−70°C; 1 month) ([2]; medium nominal conc.): 4.13%; Observed Conc. Autosampler (4 °C; 8 h) [2, 9]: 2.24 ± 0.20 µg/mL; Observed Conc. Long-term (−70 °C; 1 month) [2, 9]: 2.15 ± 0.19 µg/mL
not found	1.35	43.77 ± 4.28	4.59	10.54 ± 0.74	3.36	21.44 ± 2.13	−0.64	44.65 ± 4.37	6.26	10.33 ± 0.61	−2.95	22.84 ± 2.57	7.03	4.48	10.53 ± 0.79	7.14	20.60 ± 2.05	3.66	42.74 ± 3.40	O=C(/C=C/c1ccc(O)cc1)OC[C@H]1O[C@@H](Oc2c(-c3ccc(O)cc3)oc3cc(O)cc(O)c3c2=O)[C@H](O)[C@@H](O)[C@@H]1O [Tiliroside, tiliroside]	permeability to the intestinal epithelial cells [3]: completely impermeable; Observed Conc. 24 h [2, 7]: 41.25 ± 2.04 µg/mL; Accuracy Bias Long-term (−70°C; 1 month) ([2]; high nominal conc.): 0.24%; Observed Conc. Long-term (−70 °C; 1 month) [2, 7]: 44.26 ± 2.49 µg/mL; Accuracy Bias Autosampler (4 °C; 8 h) ([2]; low nominal conc.): 3.97%; Accuracy Bias Long-term (−70°C; 1 month) ([2]; low nominal conc.): 5.54%; Observed Conc. Autosampler (4 °C; 8 h) [2, 8]: 10.58 ± 0.81 µg/mL; Observed Conc. Long-term (−70 °C; 1 month) [2, 8]: 10.40 ± 0.99 µg/mL; Accuracy Bias Autosampler (4 °C; 8 h) ([2]; medium nominal conc.): −3.45%; Accuracy Bias Long-term (−70°C; 1 month) ([2]; medium nominal conc.): 3.42%; Observed Conc. Autosampler (4 °C; 8 h) [2, 9]: 22.94 ± 2.25 µg/mL; Observed Conc. Long-term (−70 °C; 1 month) [2, 9]: 21.41 ± 1.82 µg/mL

Structure (SMILES)	flavonoids found in the plasma after oral administration [1]	Accuracy Bias 0 h ([2]; high nominal conc.) [%]	Observed Conc. 0 h [2, 4] [µg/mL]	Accuracy Bias 0 h ([2]; low nominal conc.) [%]	Observed Conc. 0 h [2, 5] [µg/mL]	Accuracy Bias 0 h ([2]; medium nominal conc.) [%]	Observed Conc. 0 h [2, 6] [µg/mL]	Accuracy Bias 8 h ([2]; high nominal conc.) [%]	Observed Conc. 8 h [2, 7] [µg/mL]	Accuracy Bias 8 h ([2]; low nominal conc.) [%]	Observed Conc. 8 h [2, 8] [µg/mL]	Accuracy Bias 8 h ([2]; medium nominal conc.) [%]	Observed Conc. 8 h [2, 9] [µg/mL]	Accuracy Bias 24 h ([2]; high nominal conc.) [%]	Accuracy Bias 24 h ([2]; low nominal conc.) [%]	Observed Conc. 24 h [2, 8] [µg/mL]	Accuracy Bias 24 h ([2]; medium nominal conc.) [%]	Observed Conc. 24 h [2, 9] [µg/mL]	Accuracy Bias Autosampler (4 °C; 8 h) ([2]; high nominal conc.) [%]	Observed Conc. Autosampler (4 °C; 8 h) [2, 7] [µg/mL]	also measured
C[C@@H]1O[C@@H](Oc2c(-c3ccc(O)c(O)c3)oc3cc(O)cc(O)c3c2=O)[C@H](O)[C@H](O)[C@H]1O [Quercitrin, quercitrin]	not found	0.56	44.12 ± 2.82	−2.26	11.27 ± 0.75	−3.39	22.94 ± 1.87	−1.33	44.96 ± 1.84	−4.83	11.56 ± 0.78	−2.11	22.65 ± 1.85	1.05	0.30	10.99 ± 0.72	−4.15	23.11 ± 1.89	−0.17	44.44 ± 4.52	Observed Conc. 24 h [2, 7]: 43.90 ± 1.61 µg/mL; Observed Conc. Long-term (−70 °C; 1 month) [2, 7]: 44.17 ± 2.95 µg/mL; Accuracy Bias Autosampler (4 °C; 8 h) ([2]; low nominal conc.): −5.47%; Observed Conc. Autosampler (4 °C; 8 h) [2, 8]: 11.62 ± 1.02 µg/mL; Observed Conc. Long-term (−70 °C; 1 month) [2, 8]: 11.64 ± 0.99 µg/mL; Accuracy Bias Autosampler (4 °C; 8 h) ([2]; medium nominal conc.): −2.73%; Observed Conc. Autosampler (4 °C; 8 h) [2, 9]: 22.79 ± 2.26 µg/mL; Observed Conc. Long-term (−70 °C; 1 month) [2, 9]: 22.49 ± 1.66 µg/mL

Source: article PMC6152131, “Pharmacokinetic Study of Biotransformation Products from an Anxiolytic Fraction of Tilia americana” (Molecules : A Journal of Synthetic Chemistry and Natural …, 2017)
